Results reported in patent US4511565A, “7α-Acylthio-1α,2α-methylene- 3-oxo-17α-pregn-4-ene-21,17-carbolactones, their production and pharmaceutical preparations containing them” (Schering Aktiengesellschaft, priority 1982, dated 1985).
“Also recorded” adds a separate entry of the source.

Assays:
aldosterone = assay: antialdosterone effect in the experimental model by Hollmann; assay type: in vivo; settings: spironolactone=1
Description: The new compounds of Formula I have the properties of neutralizing or reversing the effect of aldosterone or deoxycorticosterone on the elimination of sodium and potassium. The compounds according to this invention are thus suited for the treatment of certain forms of hypertension, e.g., those treatable by spironolactone, edemas, primary aldosteronism, and other endocrine disturbances caused by aldosterone. They can also be used as diuretics.

male patients = settings: extended treatment of male patients; traced to antiandrogenic side effect; cited from earlier work
women = settings: ascribed to the gestagenic side effect; cited from earlier work

| Compound | Relative antialdosterone effect (aldosterone) | undesirable endocrine side effects in men (male patients) | side effects on women (women) |
| --- | --- | --- | --- |
| CC(=O)S[C@@H]1CC2=CC(=O)[C@@H]3C[C@@H]3[C@]2(C)[C@H]2CC[C@@]3(C)[C@@H]([C@@H]4C[C@@H]4[C@@]34CCC(=O)O4)[C@H]12 [B, 7α-acetylthio-1α,2α;15β,16β-dimethylene-3-oxo-17α-pregn-4-ene-21,17-carbolactone] | 2-3 | – | – |
| CC(=O)S[C@@H]1CC2=CC(=O)[C@@H]3C[C@@H]3[C@]2(C)[C@H]2CC[C@@]3(C)[C@@H]([C@H]4C[C@H]4[C@@]34CCC(=O)O4)[C@H]12 [C, 7α-acetylthio-1α,2α;15α,16α-dimethylene-3-oxo-17α-pregn-4-ene-21,17-carbolactone] | 3-4 | – | – |
| CC(=O)S[C@@H]1CC2=CC(=O)CC[C@]2(C)[C@H]2CC[C@@]3(C)[C@@H](CC[C@@]34CCC(=O)O4)[C@H]12 [Spironolactone, spironolactone] | – | gynecomastia; also recorded: impotence | amenorrhea; also recorded: menstrual irregularities |
